Patent publication US20080175794A1, “Substituted Pyridazinyl- and Pyrimidinyl-Quinolin-4-Ylamine Analogues” (NEUROGEN CORPORATION, priority 2005, published 2008)

Target: T1, human capsaicin receptor (Homo sapiens, UniProt Q8NER1)
T1 construct: expressed in transfected cells
Experiment: Calcium mobilization assay, determination of antagonist activity (Example 6)
Assay type: cell-based
Conditions: Table III; assay provided in Example 6; cells expressing human capsaicin receptor, capsaicin at EC50
Method in brief: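 Stable HEK293 clones expressing full-length human capsaicin receptor, loaded with Fluo-3 AM in KRH buffer pH 7.4 (1–2 h, 37 °C). Test compound (1–5 μM final) preincubated 0.5–6 h at room temperature in the dark, then capsaicin added at its EC50. FLIPR/Fluoroskan calcium signal; IC50 as concentration halving the capsaicin response.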

T1 sequence (Q8NER1 whole entry): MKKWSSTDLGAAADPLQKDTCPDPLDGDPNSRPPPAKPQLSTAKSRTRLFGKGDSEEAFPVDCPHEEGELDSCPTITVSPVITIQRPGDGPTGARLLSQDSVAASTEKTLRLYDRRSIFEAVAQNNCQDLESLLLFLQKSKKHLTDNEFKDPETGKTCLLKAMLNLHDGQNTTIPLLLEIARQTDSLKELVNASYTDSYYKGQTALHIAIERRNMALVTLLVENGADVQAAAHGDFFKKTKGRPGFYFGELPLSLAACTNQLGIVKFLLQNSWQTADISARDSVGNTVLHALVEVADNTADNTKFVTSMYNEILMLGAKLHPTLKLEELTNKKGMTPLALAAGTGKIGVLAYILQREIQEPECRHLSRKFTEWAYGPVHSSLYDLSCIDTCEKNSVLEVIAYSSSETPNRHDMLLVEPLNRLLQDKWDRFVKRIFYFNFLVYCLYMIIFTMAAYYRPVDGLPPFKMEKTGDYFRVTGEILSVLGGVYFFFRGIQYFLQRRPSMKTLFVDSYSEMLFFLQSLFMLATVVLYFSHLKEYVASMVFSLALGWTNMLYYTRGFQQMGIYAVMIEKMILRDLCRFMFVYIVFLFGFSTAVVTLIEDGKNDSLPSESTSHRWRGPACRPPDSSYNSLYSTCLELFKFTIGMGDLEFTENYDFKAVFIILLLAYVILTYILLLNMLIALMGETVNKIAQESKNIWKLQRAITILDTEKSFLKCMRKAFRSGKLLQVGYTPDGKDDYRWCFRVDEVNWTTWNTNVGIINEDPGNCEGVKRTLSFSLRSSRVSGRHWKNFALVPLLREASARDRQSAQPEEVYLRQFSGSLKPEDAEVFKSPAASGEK

Row | SMILES | IC50
1 | CCC(O)CNc1cc(C(F)(F)F)c(-c2cnc3c(Nc4ccc(C(F)(F)F)cn4)ccnc3n2)nn1 (stereo not shown) [Compound 173, 1-{[5-(trifluoromethyl)-6-(8{[5-(trifluoromethyl)pyridin-2-yl]amino}pyrido[2,3-b]pyrazin-3-yl)pyridazin-3-yl]amino}butan-2-ol] | < 1000 nM
2 | CN1CCN(CCCNc2cc(C(F)(F)F)c(-c3cnc4c(Nc5ccc(C(F)(F)F)cn5)ccnc4n3)nn2)CC1 [Compound 81, 3-[6-{[3-(4-methylpiperazin-1-yl)propyl]amino}-4-(trifluoromethyl)pyridazin-3-yl]-N-[5-(trifluoromethyl)pyridin-2-yl]pyrido[2,3-b]pyrazin-8-amine] | < 1000 nM
3 | OCCOc1cc(C(F)(F)F)c(-c2cnc3c(Nc4ccc(C(F)(F)F)cn4)ccnc3n2)nn1 [Compound 63, 2-{[5-(trifluoromethyl)-6-(8-{[5-(trifluoromethyl)pyridin-2-yl]amino}pyrido[2,3-b]pyrazin-3-yl)pyridazin-3-yl]oxy}ethanol] | < 1000 nM
4 | CN1CCCC1CCNc1cc(C(F)(F)F)c(-c2cnc3c(Nc4ccc(C(F)(F)F)cn4)ccnc3n2)nn1 (stereo not shown) [Compound 72, 3-[6-{[2-(1-methylpyrrolidin-2-yl)ethyl]amino}-4-(trifluoromethyl)pyridazin-3-yl]-N-[5-(trifluoromethyl)pyridin-2-yl]pyrido[2,3-b]pyrazin-8-amine] | < 1000 nM
5 | CS(=O)(=O)c1ccc(Nc2ccnc3nc(-c4nnccc4C(F)(F)F)cnc23)nc1 [Compound 47, N-[5-(methylsulfonyl)-2-pyridinyl]-3-[4-(trifluoromethyl)-3-pyridazinyl]pyrido[2,3-b]pyrazin-8-amine] | < 1000 nM
6 | CC(C)Nc1cc(C(F)(F)F)c(-c2cnc3c(Nc4ccc(C(F)(F)F)cn4)ccnc3n2)nn1 [Compound 157, 3-[6-(isopropylamino)-4-(trifluoromethyl)pyridazin-3-yl]-N-[5-(trifluoromethyl)pyridin-2-yl]pyrido[2,3-b]pyrazin-8-amine] | < 1000 nM
7 | FC(F)(F)CNc1cc(C(F)(F)F)c(-c2cnc3c(Nc4ccc(C(F)(F)F)cn4)ccnc3n2)nn1 [Compound 155, 3-{6-[(2,2,2-trifluoroethyl)amino]-4-(trifluoromethyl)pyridazin-3-yl}-N-[5-(trifluoromethyl)pyridin-2-yl]pyrido[2,3-b]pyrazin-8-amine] | < 1000 nM
8 | O[C@H]1CCN(c2cc(C(F)(F)F)c(-c3cnc4c(Nc5ccc(C(F)(F)F)cn5)ccnc4n3)nn2)C1 [Compound 193] | < 1000 nM
9 | FC(F)(F)c1ccc(Nc2ccnc3nc(-c4nnc(NCC5CCCO5)cc4C(F)(F)F)cnc23)nc1 (stereo not shown) [Compound 112, 3-{6-[(tetrahydrofuran-2-ylmethyl)amino]-4-(trifluoromethyl)pyridazin-3-yl}-N-[5-(trifluoromethyl)pyridin-2-yl]pyrido[2,3-b]pyrazin-8-amine] | < 1000 nM
10 | CN(CCO)c1cc(C(F)(F)F)c(-c2cnc3c(Nc4ccc(C(F)(F)F)cn4)ccnc3n2)nn1 [Compound 135, 2-{methyl[5-(trifluoromethyl)-6-(8-{[5-(trifluoromethyl)pyridin-2-yl]amino}pyrido[2,3-b]pyrazin-3-yl)pyridazin-3-yl]amino}ethanol] | < 1000 nM
11 | C#CCN(C)c1cc(C(F)(F)F)c(-c2cnc3c(Nc4ccc(C(F)(F)F)cn4)ccnc3n2)nn1 [Compound 125, 3-{6-[methyl(prop-2-yn-1-yl)amino]-4-(trifluoromethyl)pyridazin-3-yl}-N-[5-(trifluoromethyl)pyridin-2-yl]pyrido[2,3-b]pyrazin-8-amine] | < 1000 nM
12 | OCCCNc1cc(C(F)(F)F)c(-c2cnc3c(Nc4ccc(C(F)(F)F)cn4)ccnc3n2)nn1 [Compound 169, 3-{[5-(trifluoromethyl)-6-(8-{[5-(trifluoromethyl)pyridin-2-yl]amino}pyrido[2,3-b]pyrazin-3-yl)pyridazin-3-yl]amino}propan-1-ol] | < 1000 nM
13 | FC(F)(F)c1cnc(Nc2ccnc3nc(-c4nnccc4C(F)(F)F)cnc23)cn1 [Compound 46, N-[5-(trifluoromethyl)-2-pyrazinyl]-3-[4-(trifluoromethyl)-3-pyridazinyl]pyrido[2,3-b]pyrazin-8-amine] | < 1000 nM
14 | COCCCNc1cc(C(F)(F)F)c(-c2cnc3c(Nc4ccc(C(F)(F)F)cn4)ccnc3n2)nn1 [Compound 164, 3-{6-[(3-methoxypropyl)amino]-4-(trifluoromethyl)pyridazin-3-yl}-N-[5-(trifluoromethyl)pyridin-2-yl]pyrido[2,3-b]pyrazin-8-amine] | < 1000 nM
15 | CN(CC(=O)O)c1cc(C(F)(F)F)c(-c2cnc3c(Nc4ccc(C(F)(F)F)cn4)ccnc3n2)nn1 [Compound 56, N-methyl-N-[5-(trifluoromethyl)-6-(8-{[5-(trifluoromethyl)pyridin-2-yl]amino}pyrido[2,3-b]pyrazin-3-yl)pyridazin-3-yl]glycine] | < 1000 nM

Further lines, results first:

Row | IC50 | SMILES
16 | < 1000 nM | CCCNc1cc(C(F)(F)F)c(-c2cnc3c(Nc4ccc(C(F)(F)F)cn4)ccnc3n2)nn1 [Compound 102, 3-[6-(propylamino)-4-(trifluoromethyl)pyridazin-3-yl]-N-[5-(trifluoromethyl)pyridin-2-yl]pyrido[2,3-b]pyrazin-8-amine]
17 | < 1000 nM | NC(=O)CNc1cc(C(F)(F)F)c(-c2cnc3c(Nc4ccc(C(F)(F)F)cn4)ccnc3n2)nn1 [Compound 113, N2-[5-(trifluoromethyl)-6-(8-{[5-(trifluoromethyl)pyridin-2-yl]amino}pyrido[2,3-b]pyrazin-3-yl)pyridazin-3-yl]glycinamide]
18 | < 1000 nM | CN(C)C(=O)CNc1cc(C(F)(F)F)c(-c2cnc3c(Nc4ccc(C(F)(F)F)cn4)ccnc3n2)nn1 [Compound 167, N,N-dimethyl-N2-[5-(trifluoromethyl)-6-(8-{[5-(trifluoromethyl)pyridin-2-yl]amino}pyrido[2,3-b]pyrazin-3-yl)pyridazin-3-yl]glycinamide]
19 | < 1000 nM | COc1nc(Nc2ccnc3nc(-c4nnccc4C(F)(F)F)cnc23)ccc1C(F)(F)F [Compound 49, N-[6-methoxy-5-(trifluoromethyl)pyridin-2-yl]-3-[4-(trifluoromethyl)pyridazin-3-yl]pyrido[2,3-b]pyrazin-8-amine]
20 | < 1000 nM | CN(CC#N)c1cc(C(F)(F)F)c(-c2cnc3c(Nc4ccc(C(F)(F)F)cn4)ccnc3n2)nn1 [Compound 124, {methyl[5-(trifluoromethyl)-6-(8-{[5-(trifluoromethyl)pyridin-2-yl]amino}pyrido-[2,3-b]pyrazin-3-yl)pyridazin-3-yl]amino}acetonitrile]
21 | < 1000 nM | CCC(CO)Nc1cc(C(F)(F)F)c(-c2cnc3c(Nc4ccc(C(F)(F)F)cn4)ccnc3n2)nn1 (stereo not shown) [Compound 118, 2-{[5-(trifluoromethyl)-6-(8-{[5-(trifluoromethyl)pyridin-2-yl]amino}pyrido[2,3-b]pyrazin-3-yl)pyridazin-3-yl]amino}butan-1-ol]
22 | < 1000 nM | C=CCN1CCN(c2cc(C(F)(F)F)c(-c3cnc4c(Nc5ccc(C(F)(F)F)cn5)ccnc4n3)nn2)CC1 [Compound 86, 3-[6-(4-allylpiperazin-1-yl)-4-(trifluoromethyl)pyridazin-3-yl]-N-[5-(trifluoromethyl)pyridin-2-yl]pyrido[2,3-b]pyrazin-8-amine]
23 | < 1000 nM | CCC(C)Nc1cc(C(F)(F)F)c(-c2cnc3c(Nc4ccc(C(F)(F)F)cn4)ccnc3n2)nn1 (stereo not shown) [Compound 108, 3-[6-(sec-butylamino)-4-(trifluoromethyl)pyridazin-3-yl]-N-[5-(trifluoromethyl)pyridin-2-yl]pyrido[2,3-b]pyrazin-8-amine]
24 | < 1000 nM | CC(C)CCNc1cc(C(F)(F)F)c(-c2cnc3c(Nc4ccc(C(F)(F)F)cn4)ccnc3n2)nn1 [Compound 106, 3-{6-[(3-methylbutyl)amino]-4-(trifluoromethyl)pyridazin-3-yl}-N-[5-(trifluoromethyl)pyridin-2-yl]pyrido[2,3-b]pyrazin-8-amine]
25 | < 1000 nM | CN(C)c1cc(C(F)(F)F)c(-c2cnc3c(Nc4ccc(C(F)(F)F)cn4)ccnc3n2)nn1 [Compound 54, 3-[6-(dimethylamino)-4-(trifluoromethyl)pyridazin-3-yl]-N-[5-(trifluoromethyl)pyridin-2-yl]pyrido[2,3-b]pyrazin-8-amine]
26 | < 1000 nM | FC(F)(F)c1ccc(Nc2ccnc3nc(-c4nnc(N5CCOCC5)cc4C(F)(F)F)cnc23)nc1 [Compound 53, 3-[6-morpholin-4-yl-4-(trifluoromethyl)pyridazin-3-yl]-N-[5-(trifluoromethyl)pyridin-2-yl]pyrido[2,3-b]pyrazin-8-amine]
27 | < 1000 nM | FC(F)(F)c1ccc(Nc2ccnc3nc(-c4nnc(NCCCN5CCCC5)cc4C(F)(F)F)cnc23)nc1 [Compound 77, 3-{6-[(3-pyrrolidin-1-ylpropyl)amino]-4-(trifluoromethyl)pyridazin-3-yl}-N-[5-(trifluoromethyl)pyridin-2-yl]pyrido[2,3-b]pyrazin-8-amine]
28 | < 1000 nM | CCN(CCO)c1cc(C(F)(F)F)c(-c2cnc3c(Nc4ccc(C(F)(F)F)cn4)ccnc3n2)nn1 [Compound 194]
29 | < 1000 nM | NC(=O)c1cc(C(F)(F)F)c(-c2cnc3c(Nc4ccc(C(F)(F)F)cn4)ccnc3n2)nn1 [Compound 60, 5-(trifluoromethyl)-6-(8-{[5-(trifluoromethyl)pyridin-2-yl]amino}pyrido[2,3-b]pyrazin-3-yl)pyridazine-3-carboxamide]

Same assay, conditions: assay provided in Example 6; cells expressing human capsaicin receptor, capsaicin at EC50

Row | IC50 | SMILES
30 | < 1000 nM | FC(F)(F)c1ccc(Nc2ccnc3nc(-c4ncncc4C(F)(F)F)ccc23)nc1 [Compound 5, N-[5-(Trifluoromethyl)pyridin-2-yl]-7-[5-(trifluoromethyl)pyrimidin-4-yl]-1,8-naphthyridin-4-amine]
31 | < 1000 nM | FC(F)(F)c1ccc(Nc2ccnc3nc(-c4nnccc4C(F)(F)F)cnc23)nc1 [Compound 2, N-[5-(Trifluoromethyl)pyridin-2-yl]-3-[4-(trifluoromethyl)pyridazin-3-yl]pyrido[2,3-b]pyrazin-8-amine]
